According to article PMC7822874, “Chemoprotective antimalarials identified through quantitative high-throughput screening of Plasmodium blood and liver stage parasites” (Scientific Reports, 2021):
Like-named read-outs stand apart in the source and are kept apart here.

What was measured:
[1] = system: P. berghei-ANKA-GFP-LucCON liver stage parasites in HepG2-A16-CD81EGFP cells; experiment: P. berghei liver stage Pb-Luc assay, Method 1 (UCSD, 1536-well); format: cell-based, Plasmodium berghei; conditions: Plasmodium berghei, 48 h
in vitro = conditions: human, HepG2-A16-CD81EGFP cells, uninfected
HepG2-A16-CD81EGFP cells = conditions: for HepG2 1uM growth rep1 / HepG2 1uM growth rep2: HepG2, 1 µM compound treatment (10 mM stocks); for HepG2 1uM growth rep1 / HepG2 3uM growth rep1: replicate 1, normalized; for HepG2 1uM growth rep2 / HepG2 3uM growth rep2: replicate 2, normalized; for HepG2 3uM growth rep1 / HepG2 3uM growth rep2: HepG2, 3 µM compound treatment (10 mM stocks)
[2] = system: Plasmodium falciparum Dd2 asexual blood stage parasites; experiment: microbe, parasite or virus in culture; design: species or system Plasmodium falciparum Dd2 in human erythrocytes; single determination (one 11-point concentration-response curve); conditions: Plasmodium falciparum, DD2, Erythrocyte, 72 h; read-out: AC50
[3] = nominal 1 uM (10 mM stock), […] for 15 mM, 1.2 uM for 12 mM, 2 uM for 20 mM stock, average of 2 wells, 1536-well plate, repeat 1, read-out: Pb-Luc signal, 1 uM, repeat 1
[4] = nominal 1 uM (10 mM stock), […] for 15 mM, 1.2 uM for 12 mM, 2 uM for 20 mM stock, average of 2 wells, 1536-well plate, repeat 2, read-out: Pb-Luc signal, 1 uM, repeat 2
[5] = nominal 1 uM (10 mM stock), […] for 15 mM, 1.2 uM for 12 mM, 2 uM for 20 mM stock, average of 2 wells, 1536-well plate, repeat 3, read-out: Pb-Luc signal, 1 uM, repeat 3
[6] = nominal 3 uM (10 mM stock), 4.5 uM for 15 mM, 3.6 uM for 12 mM, 6 uM for 20 mM stock, average of 2 wells, 1536-well plate, repeat 1, read-out: Pb-Luc signal, 3 uM, repeat 1
[7] = nominal 3 uM (10 mM stock), 4.5 uM for 15 mM, 3.6 uM for 12 mM, 6 uM for 20 mM stock, average of 2 wells, 1536-well plate, repeat 2, read-out: Pb-Luc signal, 3 uM, repeat 2
[8] = nominal 3 uM (10 mM stock), 4.5 uM for 15 mM, 3.6 uM for 12 mM, 6 uM for 20 mM stock, average of 2 wells, 1536-well plate, repeat 3, read-out: Pb-Luc signal, 3 uM, repeat 3
[9] = nominal 1 uM (10 mM stock), […] for 15 mM, 1.2 uM for 12 mM, 2 uM for 20 mM stock, average of 2 wells, repeat 2
[10] = nominal 3 uM (10 mM stock), 4.5 uM for 15 mM, 3.6 uM for 12 mM, 6 uM for 20 mM stock, average of 2 wells, repeat 2
[11] = P. berghei liver stage, 1 µM compound treatment (10 mM stocks), replicate 1, normalized, average of 2 wells on a 1536 well plate, read-out: PbLuc 1uM growth rep1
[12] = P. berghei liver stage, 1 µM compound treatment (10 mM stocks), replicate 2, normalized, average of 2 wells on a 1536 well plate, read-out: PbLuc 1uM growth rep2
[13] = P. berghei liver stage, 3 µM compound treatment (10 mM stocks), replicate 1, normalized, average of 2 wells on a 1536 well plate, read-out: PbLuc 3uM growth rep1
[14] = P. berghei liver stage, 3 µM compound treatment (10 mM stocks), replicate 2, normalized, average of 2 wells on a 1536 well plate, read-out: PbLuc 3uM growth rep2

Row | Compound | activity at 1 µM [1, 3] | activity at 1 µM [1, 4] | activity at 1 µM [1, 5] | activity at 3 µM [1, 6] | activity at 3 µM [1, 7] | activity at 3 µM [1, 8] | viability at 48 h, 1 µM (in vitro) | viability at 48 h, 3 µM (in vitro) | HepG2 viability signal, 1 uM, repeat 2 (HepG2-A16-CD81EGFP cells; [9]) | HepG2 viability signal, 3 uM, repeat 2 (HepG2-A16-CD81EGFP cells; [10]) | activity at 1 µM [1, 11] | activity at 1 µM [1, 12] | activity at 3 µM [1, 13] | activity at 3 µM [1, 14] | HepG2 1uM growth rep1 (HepG2-A16-CD81EGFP cells; average of 2 wells) | HepG2 1uM growth rep2 (HepG2-A16-CD81EGFP cells; average of 2 wells) | HepG2 3uM growth rep1 (HepG2-A16-CD81EGFP cells; average of 2 wells) | HepG2 3uM growth rep2 (HepG2-A16-CD81EGFP cells; average of 2 wells) | AC50 [2] | other results
1 | O=C1NCc2ccccc2CC12CCCN(Cc1ccccc1)C2 (stereo not drawn) [NCGC00377595-01] | 90.7% | 117% | 140% | 93.9% | 108% | 117% | 104% | 104% | 103.34% | 104.13% | – | – | – | – | – | – | – | – | – | –
2 | COc1ccccc1NC(=O)Cn1cccc1-c1nc(-c2ccc(F)cc2)no1 [NCGC00445349-01] | 128% | 112% | 138% | 108% | 129% | 93.3% | 107% | 107% | 104.40% | 104.77% | – | – | – | – | – | – | – | – | – | –
3 | COc1ccc(OC)c(NC(=O)c2ccc3c(c2)N([S+](=O)([O-])c2ccccc2)CC3)c1 [NCGC00430430-01] | 111% | 108% | 91.3% | 102% | 79.3% | 99.8% | 112% | 109% | – | – | – | – | – | – | – | – | – | – | – | HepG2 viability signal, 1 uM, repeat 2 (HepG2-A16-CD81EGFP cells): 105.03%; HepG2 viability signal, 3 uM, repeat 2 (HepG2-A16-CD81EGFP cells): 97.67%
4 | O=C(O)c1ccc(-c2nc3cnccc3[nH]2)cc1 [NCGC00375713-01] | 93.2% | 89.1% | 137% | 91.8% | 93.1% | 98.5% | 105% | 104% | 104.68% | 103.76% | – | – | – | – | – | – | – | – | – | –
5 | COc1ccc(-c2noc(-c3cccn3CC(=O)Nc3ccc(C)cc3Cl)n2)cc1F [NCGC00445494-01] | 118% | 111% | 98.1% | 77.8% | 91.7% | 106% | 99.5% | 104% | 100.81% | 103.68% | – | – | – | – | – | – | – | – | – | –
6 | COc1cccc(CN2CCC(Oc3ccc(-c4noc(C5CC5)n4)cc3)C2)c1 (stereo not drawn) [NCGC00440915-01] | 92.7% | 110% | 96% | 64.2% | 65.8% | 35.3% | 102% | 96.6% | 97.97% | 94.86% | – | – | – | – | – | – | – | – | – | –
7 | CCN(c1ccccc1)[S+](=O)([O-])c1ccc(NC(=O)c2cc(=O)c3cc(C)ccc3o2)cc1 [NCGC00115963-01] | – | – | – | – | – | – | – | – | – | – | – | – | – | – | – | – | – | – | – | viability at 48 h (in vitro): 97.5%; HepG2 viability, fourth HepG2 column (HepG2-A16-CD81EGFP cells): 95.01%; HepG2 viability, second HepG2 column (HepG2-A16-CD81EGFP cells): 97.84%; HepG2 viability, third HepG2 column (HepG2-A16-CD81EGFP cells): 94.20%
8 | CN1c2cc(C(=O)Nc3ccc(C(F)(F)F)cc3)ccc2C(=O)N2CCCCC21 (stereo not drawn) [NCGC00452394-01] | 89.2% | 103% | 126% | 97.6% | 85.9% | 102% | 104% | 110% | 105.25% | 108.50% | – | – | – | – | – | – | – | – | – | –
9 | COc1ccc(CN2CCCC3(C2)C(NC2CCCCC2)=NC(=O)N3c2cc(F)cc(F)c2)cc1 (stereo not drawn) [NCGC00373972-01] | 89.2% | 98.6% | 137% | 120% | 103% | 87.7% | 107% | 105% | 102.91% | 99.86% | – | – | – | – | – | – | – | – | – | –
10 | CCn1cnc2c(Nc3cc(F)cc(F)c3)nc(C#N)nc21 [MLS002471782-01] | – | – | – | – | – | – | – | – | – | – | 155% | 128% | 149% | 187% | 88% | 82% | 83% | 89% | 2370 nM | –
11 | CCOC(=O)C1CCN(C(=O)c2cc(C(C)(C)C)nn2Cc2ccccc2)CC1 [MLS000860456-01] | – | – | – | – | – | – | – | – | – | – | 119% | 98% | 89% | 96% | 105% | 95% | 88% | 93% | 4730 nM | –
12 | N#Cc1c(N2CCN(c3ccc(F)cc3)CC2)nc(N)c2c(N)nc3c(c12)CC(=O)N3C1CC1 [MLS001003889-01] | – | – | – | – | – | – | – | – | – | – | 114% | 88% | 44% | 56% | 108% | 97% | 85% | 94% | 668 nM | –
13 | CCC(=O)N1CCc2cc(Br)cc(S(=O)(=O)N3CCCCC3CC)c21 (stereo not drawn) [MLS000936752-01] | – | – | – | – | – | – | – | – | – | – | 89% | 100% | 89% | 116% | 106% | 96% | 87% | 93% | 1060 nM | –
14 | Clc1ccc2c(N/N=C/c3cccc(Br)c3)ccnc2c1 [MLS000336198-01] | – | – | – | – | – | – | – | – | – | – | 63% | 77% | 45% | 62% | 83% | 80% | 87% | 87% | 10600 nM | –
